Values of other authors, collected in patent publication US20250000898A1, “MAGNESIUM OXIDE-CONTAINING PHARMACEUTICAL COMPOSITION FOR TREATING PEDIATRIC CHRONIC FUNCTIONAL CONSTIPATION” (SETOLAS Holdings, Inc., priority 2021, published 2025).

Key:
[1] = tested on: children under 15 years of age diagnosed with chronic constipation; conditions: for percentage of patients treated successfully for constipation (success rate for treatment of constipation): children under 15 years, median age 2 years 11 months, 3 weeks (magnesium oxide: 50 mg/kg per day, 20 of 49 cases; lactulose: 9 of 50 cases)
[2] = 50 mg/kg daily, 3 weeks

## [O]=[Mg] [magnesium oxide powder, magnesium oxide]
[1]
  percentage of patients treated successfully for constipation (success rate for treatment of constipation): 41%
[1]; second and third weeks after administration, 50 mg/kg daily in two divided doses, 3 weeks
  average frequency of defecation: 5.5±3.15
[1]; second and third weeks after administration, 50 mg/kg daily, 3 weeks
  average stool status score (Bristol Stool Scale): 4.90±0.91
[2]
  hypermagnesemia: None of the patients exhibited hypermagnesemia

## OC[C@H]1O[C@@H](O[C@@H]2[C@@H](CO)OC(O)(CO)[C@H]2O)[C@H](O)[C@@H](O)[C@H]1O (mixture of isomers) [lactulose]
[1]
  percentage of patients treated successfully for constipation (success rate for treatment of constipation): 18%
